Reference: PubChem BioAssay AID2060617 (Molecular Pharmacology Branch, DTP, NCI, 2025)
“And” between values parts separate entries of the source, which are not always exact repeats. Equal values may be shown once.

Test system: 485368-065-R4-J2-PDC spheroids with HUVEC/MSC, viability
Assay: Anticancer human tumor 485368-065-R4-J2-PDC patient-derived pancreatic carcinoma cell line growth inhibition [CLK]
Settings: for viability, T/C: stronger effect = lower value
From the text: A high-throughput screen of multi-cell type tumor spheroids was designed to identify active combinations of […] and targeted small molecules. Complex spheroids include a stromal component modeled by human endothelial cells (HUVEC) and fibroblasts modeled by human mesenchymal stem cells (MSCs). The concentration ranges selected for each drug and investigational agent were based upon clinically achievable concentrations if the clinical Cmax of the agent was known.
Compounds. The drugs and investigational agents: cirtuvivint (SM08502; NSC835563), CC-671 (NSC850746), vemurafenib (NSC761431), tapotoclax (NSC804041), sotorasib (NSC818433), adagrasib (NSC831453), MRTX-1133 (NSC836407), BAY2416964 (NSC825713), copanlisib (NSC816437), inavolisib (NSC800729), abemaciclib (NSC768073), osimertinib (NSC779217), entinostat (NSC756642), eltanexor (KPT-8602, NSC794443), venetoclax (NSC766270), ceralasertib (NSC777638), bortezomib (NSC756655), olaparib (NSC753686), talazoparib (NSC767125), alisertib (NSC759677), peposertib (NSC802822), gemcitabine (NSC613327), 5-fluorouracil (NSC19893), SN-38 (NSC673596), oxaliplatin (NSC266046), paclitaxel (NSC125973), and doxorubicin (NSC123127), were obtained from the National Cancer Institute (NCI) Developmental Therapeutics Program Chemical Repository. The FDA-approved anticancer drug set is available from the Developmental Therapeutics Program at https://dtp.cancer.gov/organization/dscb/obtaining/available plates.htm. […] The stock solutions were prepared in dimethyl sulfoxide (DMSO, Sigma-Aldrich, St. Louis, MO, cat. D2650), except for the platinum complexes which were prepared in saline (Quality Biological, Gaithersburg, MD, cat. 114-055-101), at 800-fold the tested concentration and stored at -70 degrees C prior to their use. All drugs and investigational agents were tested over a range starting from a high concentration at or near the clinical Cmax and decreasing in half-log increments. If the clinical Cmax for an agent had not been determined, the highest concentration tested was 10 microM.
Cell Culture. All cells were maintained in an incubator at 37 degrees C and 5% CO2 with 95% humidity. The PDC lines were cultured according to standard operating procedures established by the NCI PDMR. Briefly, all PDCs were thawed and cultured in Matrigel-coated flasks prepared with a working solution of 1X Ham's F-12 nutrient mix, without supplementation (Invitrogen, Waltham, MA, cat. 11765054), 100 U/mL penicillin-streptomycin (Invitrogen, cat. 15140122), and 2.5% Matrigel (Corning Inc., Corning, NY, cat. 354248) for the first three passages. The 947758-054-R-J2-PDC line was cultured in 6B/Colon 1A media, which includes advanced DMEM/F-12 (Thermo Fisher Scientific, cat. 12634028), 10 mM HEPES (Thermo Fisher Scientific, cat. 15630080), 1X GlutaMAX supplement (Thermo Fisher Scientific, cat. 35050061), 0.1 mg/mL primocin (InvivoGen, cat. ant-pm-2), 10% defined fetal bovine serum, heat inactivated (HyClone Laboratories Inc., cat. SH30070.03HI), 1.25 mM N-Acetyl-L-cysteine (Sigma-Aldrich, cat. A9165), 10 mM nicotinamide (Sigma-Aldrich, cat. N0636), 1X B-27 supplement (Thermo Fisher Scientific, cat. 17504044), 1X N-2 supplement (Thermo Fisher Scientific, cat. 17502048), and 10 microM Y-27632 dihydrochloride (Tocris Bioscience, cat. 1254). The 876862-298-R-J1-PDC was cultured in 6E media, which includes all 6B/Colon 1A media components plus 50% L-WRN conditioned media (ATCC, cat. CRL-3276), 50 ng/mL recombinant human EGF recombinant protein (hEGF; Thermo Fisher Scientific, cat. PHG0311), 10 ng/mL recombinant human fibroblast growth factor 10 (hGFG-10; PeproTech, cat. 100-26), 1 ng/mL recombinant human fibroblast growth factor 2 (hFGF-2; PeproTech, cat. 100-18B), and 1 µM prostaglandin E2 (PGE2; Tocris, cat. 2296). The 227483-062-R1-J1-PDC line was cultured in Panc media, containing all 6E components except hFGF-2, with the addition of 500 nM SB-431542 (Selleckchem, cat. S1067) and 10 nM gastrin (Tocris, cat. 3006). […]
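Also: spheroids exposed to compounds for seven days.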
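For viability, T/C in this document: 100% = DMSO vehicle control wells.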

`CC(=O)O[C@H]1C(=O)[C@@]2(C)[C@H]([C@H](OC(=O)c3ccccc3)[C@]3(O)C[C@H](OC(=O)[C@H](O)[C@@H](NC(=O)c4ccccc4)c4ccccc4)C(C)=C1C3(C)C)[C@]1(OC(C)=O)CO[C@@H]1C[C@@H]2O` was tested, and the viability, T/C (compound 0.0316 µM) was 58.2% and 59.8%, the viability, T/C (compound 0.1 µM) was 50.1% and 56.1% and the viability, T/C (compound 0.316 µM) was 49% and 52.2%. The viability, T/C (compound 1 µM) was 48.5% and 43.6%, the viability, T/C (compound 3.16 µM) was 49.9% and 52.5% and the viability, T/C (compound 10 µM) was 48.8% and 65.5%.

In the case of `COc1ccc([C@@H](O)c2cc(-c3ncnc4cc(N5CCOCC5)ccc34)c(F)cc2Cl)nn1`, the viability, T/C (compound 0.0316 µM) is reported as 97% and 105%, the viability, T/C (compound 0.1 µM) is reported as 94.9% and 95.8% and the viability, T/C (compound 0.316 µM) is reported as 103% and 96.8%. For the same molecule, the viability, T/C (compound 1 µM) was 105% and 114%, the viability, T/C (compound 3.16 µM) was 104% and 102% and the viability, T/C (compound 10 µM) was 82.6% and 77.8%. The IC50 (curve of compound) was over 10000 nM.

For `COc1cccc2c1C(=O)c1c(O)c3c(c(O)c1C2=O)CC(O)(C(=O)CO)CC3OC1CC(N)C(O)C(C)O1` (configuration not stated), the viability, T/C (compound 0.0316 µM) was 98.8% and 100%, the viability, T/C (compound 0.1 µM) was 102% and 91.6% and the viability, T/C (compound 0.316 µM) was 67.6% and 66.2%. For the same molecule, the viability, T/C (compound 1 µM) was 35% and 37.2%, the viability, T/C (compound 3.16 µM) was 7.33% and 9.65% and the viability, T/C (compound 10 µM) was 19.4% and 24.4%. The IC50 (curve of compound) was 574 nM and 566 nM.

Work on `C=CC(=O)N1CCN(c2nc(=O)n(-c3c(C)ccnc3C(C)C)c3nc(-c4c(O)cccc4F)c(F)cc23)C(C)C1` (configuration not stated) + CN1CCN(c2cc(C(=O)Nc3cc4cc(-c5cnn(C)c5)ccc4cn3)ccn2)CC1 yielded an IC50 (curve of first compound, second compound 0.0316 µM) of over 10000 nM, an IC50 (curve of first compound, second compound 0.1 µM) of over 10000 nM and an IC50 (curve of first compound, second compound 0.316 µM) of over 10000 nM. For the same molecule, the IC50 (curve of first compound, second compound 1 µM) was under 31.6 nM, the IC50 (curve of first compound, second compound 3.16 µM) was under 31.6 nM and the IC50 (curve of first compound, second compound 10 µM) was under 31.6 nM. For the same molecule, the viability, T/C (second compound 0.0316 µM, first compound 0.0316 µM) was 107%, the viability, T/C (second compound 0.0316 µM, first compound 0.1 µM) was 106% and the viability, T/C (second compound 0.0316 µM, first compound 0.316 µM) was 99.6%. For the same molecule, the viability, T/C (second compound 0.0316 µM, first compound 1 µM) was 104%, the viability, T/C (second compound 0.0316 µM, first compound 3.16 µM) was 99.5% and the viability, T/C (second compound 0.0316 µM, first compound 10 µM) was 106%. The viability, T/C (second compound 0.1 µM, first compound 0.0316 µM) was 96.7%, the viability, T/C (second compound 0.1 µM, first compound 0.1 µM) was 121% and the viability, T/C (second compound 0.1 µM, first compound 0.316 µM) was 107%. The viability, T/C (second compound 0.1 µM, first compound 1 µM) was 108%, the viability, T/C (second compound 0.1 µM, first compound 3.16 µM) was 105% and the viability, T/C (second compound 0.1 µM, first compound 10 µM) was 102%. It also gave a viability, T/C (second compound 0.316 µM, first compound 0.0316 µM) of 83.3%, a viability, T/C (second compound 0.316 µM, first compound 0.1 µM) of 86.6% and a viability, T/C (second compound 0.316 µM, first compound 0.316 µM) of 94.9%. It also gave a viability, T/C (second compound 0.316 µM, first compound 1 µM) of 94.1%, a viability, T/C (second compound 0.316 µM, first compound 3.16 µM) of 88.9% and a viability, T/C (second compound 0.316 µM, first compound 10 µM) of 78.7%. The viability, T/C (second compound 1 µM, first compound 0.0316 µM) was 1.22%, the viability, T/C (second compound 1 µM, first compound 0.1 µM) was 1.11% and the viability, T/C (second compound 1 µM, first compound 0.316 µM) was 1.36%. It also gave a viability, T/C (second compound 1 µM, first compound 1 µM) of 1.9%, a viability, T/C (second compound 1 µM, first compound 3.16 µM) of 3.44% and a viability, T/C (second compound 1 µM, first compound 10 µM) of 3.58%. It also gave a viability, T/C (second compound 3.16 µM, first compound 0.0316 µM) of 3.01%, a viability, T/C (second compound 3.16 µM, first compound 0.1 µM) of 2.65% and a viability, T/C (second compound 3.16 µM, first compound 0.316 µM) of 2.4%. The viability, T/C (second compound 3.16 µM, first compound 1 µM) was 2.51%, the viability, T/C (second compound 3.16 µM, first compound 3.16 µM) was 4.69% and the viability, T/C (second compound 3.16 µM, first compound 10 µM) was 10.6%. The viability, T/C (second compound 10 µM, first compound 0.0316 µM) was 1.58%, the viability, T/C (second compound 10 µM, first compound 0.1 µM) was 2.84% and the viability, T/C (second compound 10 µM, first compound 0.316 µM) was 2.36%. For the same molecule, the viability, T/C (second compound 10 µM, first compound 1 µM) was 3.44%, the viability, T/C (second compound 10 µM, first compound 3.16 µM) was 4% and the viability, T/C (second compound 10 µM, first compound 10 µM) was 8.87%.
